This is an account of results in US20130345419A1, “AZOLE DERIVATIVE” (TAISHO PHARMACEUTICAL CO., LTD., priority 2011, published 2013).

The target in the experiment is T1, human recombinant FKBP12 (Homo sapiens, UniProt P62942).
T1 construct: purchased Sigma F-5398
The experiment can be described thus: Test 1: immunophilin FKBP12 rotamase (peptidylprolyl isomerase) inhibiting activity. The class given is biochemical. As to conditions: 12 nM human recombinant FKBP12, substrate succinyl-Ala-Phe-Pro-Phe-paranitroanilide 48 μM, 4° C.; read-out: PKBP12 rotamase inhibiting activity IC50. On the procedure:
(Test 1) Test for Measuring Immunophilin FKBP12 Rotamase Activity
The rotamase (peptidylprolyl isomerase) inhibiting activity of each test compound was measured by a known method (Harding et al., Nature 341, 758-760, 1989; Holts et al., J. Am. Chem. Soc. 115, 9925-9938, 1993.) To be more specific, a plastic cuvette was charged with 35 mM HEPES (pH 7.8), 12 nM human recombinant FKBP12 (Sigma, F-5398), 0.4 mg/mL α-chymotrypsin, and a test compound dissolved in DMSO at varying concentrations (DMSO's final concentration was 0.1%.) Subsequently, 24 mM of the substrate peptide, succinyl-Ala-Phe-Pro-Phe-paranitroanilide, as dissolved in trifluoroethanol containing 500 mM of LiCl was added to give a final concentration of 48 μM, whereupon reaction started. The reaction was carried out at 4° C. and the change in absorbance at 390 nm accompanying the liberation of the paranitroaniline product was monitored. A calculated initial rate minus the corresponding value in the absence of the enzyme was used as an index of rotamase activity. The rotamase inhibiting activity of a test compound was expressed in relative values (%) with respect to the control value of rotamase activity in the absence of the compound, and the concentration of the compound at which it was capable of inhibiting rotamase activity by 50% was calculated as an IC50 value from its concentration response curve.

For orientation: IC50 means the concentration at which inhibition is half-maximal.

T1 sequence (P62942 whole entry): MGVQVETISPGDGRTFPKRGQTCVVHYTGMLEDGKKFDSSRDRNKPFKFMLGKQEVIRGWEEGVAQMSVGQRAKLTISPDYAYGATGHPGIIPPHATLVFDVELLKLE

As to `COc1ccc(-c2nnc([C@@H]3CCCN3C(=O)C(F)(F)C3(O)CC(C)(C)CC(C)(C)C3)o2)cc1OC` [Compound 13], the IC50 came out at 434 nM.

In the case of `COc1ccc(CCCc2nnc([C@@H]3CCCN3C(=O)C(F)(F)C3(O)CC(C)(C)CC(C)(C)C3)o2)cc1OC` [Compound 14], the IC50 lay in the range of 500 to 1000 nM.

On to `COc1ccc(Cc2nnc([C@@H]3CCCN3C(=O)C(F)(F)C3(O)CC(C)(C)CC(C)(C)C3)o2)cc1OC` [Compound 16], for which the IC50 turned out to be 142 nM.

As for `CC1(C)CC(C)(C)CC(O)(C(F)(F)C(=O)N2CCC[C@H]2c2nnc(COc3cccnc3)o2)C1` [Compound 17], the IC50 is 356 nM.

In the case of `CC1(C)CC(C)(C)CC(O)(C(F)(F)C(=O)N2CCC[C@H]2c2cc(CO)on2)C1` [Compound 18, (S)-2,2-Difluoro-2-(1-hydroxy-3,3,5,5-tetramethylcyclohexyl)-1-(2-(5-(hydroxymethyl)isoxazol-3-yl)pyrrolidin-1-yl)ethanone], the concentration for half-maximal inhibition (IC50) is 500 to 1000 nM.

Consider `CC1(C)CC(C)(C)CC(O)(C(F)(F)C(=O)N2CCC[C@H]2c2nnc(COc3ccc(CO)cc3)o2)C1` [Compound 19], for which the half-maximal inhibitory concentration (IC50) turned out to be 229 nM.

As for `COc1cc(OCc2nnc([C@@H]3CCCN3C(=O)C(F)(F)C3(O)CC(C)(C)CC(C)(C)C3)o2)cc(OC)c1OC` [Compound 20], the half-inhibitory concentration (IC50) amounted to 276 nM.

Take `COc1cc(OCc2cc([C@@H]3CCCN3C(=O)C(F)(F)C3(O)CC(C)(C)CC(C)(C)C3)no2)cc(OC)c1OC` [Compound 21, (S)-2,2-Difluoro-2-(1-hydroxy-3,3,5,5-tetramethylcyclohexyl)-1-(2-(5-((3,4,5-trimethoxyphenoxy)methyl)isoxazol-3-yl)pyrrolidin-1-yl)ethanone]: the IC50 was determined as 64 nM.

In the case of `CC1(C)CC(C)(C)CC(O)(C(F)(F)C(=O)N2CCC[C@H]2c2nnc(CO)o2)C1` [Compound 22, (S)-2,2-Difluoro-2-(1-hydroxy-3,3,5,5-tetramethylcyclohexyl)-1-(2-(5-(hydroxymethy)-1,3,4-oxadiazol-2-yl)pyrrolidin-1-yl)ethanone], the concentration for half-maximal inhibition (IC50) is 1000 to 2000 nM.

As to `CC1(C)CC(C)(C)CC(O)(C(F)(F)C(=O)N2CCC[C@H]2c2nnc(COS(C)(=O)=O)o2)C1` [Compound 23, (S)-(5-(1-(2,2-Difluoro-2-(1-hydroxy-3,3,5,5-tetramethylcyclohexyl)acetyl)pyrrolidin-2-yl)-1,3,4-oxadiazol-2-yl)methyl methanesulfonate], the half-inhibitory concentration (IC50) lay in the range of 1000 to 2000 nM.

With `COc1ccc(OCc2nnc([C@@H]3CCCN3C(=O)C(F)(F)C3(O)CC(C)(C)CC(C)(C)C3)o2)cc1` [Compound 24], the IC50 turned out to be 218 nM.

In the case of `COc1ccccc1OCc1nnc([C@@H]2CCCN2C(=O)C(F)(F)C2(O)CC(C)(C)CC(C)(C)C2)o1` [Compound 25], the IC50 is 401 nM.

As to `COc1cccc(OCc2nnc([C@@H]3CCCN3C(=O)C(F)(F)C3(O)CC(C)(C)CC(C)(C)C3)o2)c1` [Compound 26], the IC50 lay in the range of 500 to 1000 nM.

As to `Cc1nnc([C@@H]2CCCN2C(=O)C(F)(F)C2(O)CC(C)(C)CC(C)(C)C2)o1` [Compound 27], the 50% inhibitory concentration (IC50) lay within 500 to 1000 nM.

Take `COc1ccc(Oc2nnc([C@@H]3CCCN3C(=O)C(F)(F)C3(O)CC(C)(C)CC(C)(C)C3)o2)cc1OC` [Compound 28]: the concentration for half-maximal inhibition (IC50) is 351 nM.

On to `CC1(C)CC(C)(C)CC(O)(C(F)(F)C(=O)N2CCC[C@H]2c2nnc(COc3ccccc3)o2)C1` [Compound 29, (S)-2,2-Difluoro-2-(1-hydroxy-3,3,5,5-tetramethylcyclohexyl)-1-(2-(5-(phenoxymethyl)-1,3,4-oxadiazol-2-yl)pyrrolidin-1-yl)ethanone], for which the 50% inhibitory concentration (IC50) is 62 nM.

In the case of `COc1ccc(OCc2nnc([C@@H]3CCCN3C(=O)C(F)(F)C3(O)CC(C)(C)CC(C)(C)C3)o2)c(OC)c1` [Compound 30], the IC50 stood at 220 nM.

Regarding `COc1ccc(OCc2nnc([C@@H]3CCCN3C(=O)C(F)(F)C3(O)CC(C)(C)CC(C)(C)C3)o2)cn1` [Compound 31], the concentration for half-maximal inhibition (IC50) is 389 nM.

`CC1(C)CC(C)(C)CC(O)(C(F)(F)C(=O)N2CCC[C@H]2c2nnc(COc3ccc4c(c3)OCO4)o2)C1` [Compound 32]: the IC50 came out at 165 nM.

In the case of `CC1(C)CC(C)(C)CC(O)(C(F)(F)C(=O)N2CCC[C@H]2c2nnc(COc3ccc4cc[nH]c4c3)o2)C1` [Compound 33], the half-inhibitory concentration (IC50) worked out at 259 nM.

For the compound `CC1(C)CC(C)(C)CC(O)(C(F)(F)C(=O)N2CCC[C@H]2c2nnc(Cc3cccnc3)o2)C1` [Compound 34], the 50% inhibitory concentration (IC50) lay in the range of 500 to 1000 nM.

Take `CC1(C)CC(C)(C)CC(O)(C(F)(F)C(=O)N2CCC[C@H]2c2cc(CCc3cccnc3)on2)C1` [Compound 35]: the IC50 was 45 nM.

Turning to `CC1(C)CC(C)(C)CC(O)(C(F)(F)C(=O)N2CCC[C@H]2c2nnc(COc3cncnc3)o2)C1` [Compound 36], the IC50 is 1000 to 2000 nM.

Regarding `CC1(C)CC(C)(C)CC(O)(C(F)(F)C(=O)N2CCC[C@H]2c2nnc(CN)o2)C1` [Compound 37], the IC50 is 1000 to 2000 nM.

Turning to `CC1(C)CC(C)(C)CC(O)(C(F)(F)C(=O)N2CCC[C@H]2c2nnc(CNC(=O)c3ccccc3)o2)C1` [Compound 38, (S)—N-((5-(1-(2,2-Difluoro-2-(1-hydroxy-3,3,5,5-tetramethylcyclohexyl)acetyl)pyrrolidin-2-yl)-1,3,4-oxadiazol-2-yl)methyl)benzamide], the IC50 lay within 500 to 1000 nM.

Turning to `CN(C)Cc1nnc([C@@H]2CCCN2C(=O)C(F)(F)C2(O)CC(C)(C)CC(C)(C)C2)o1` [Compound 39, (S)-1-(2-(5-((Dimethylamino)methyl)-1,3,4-oxadiazol-2-yl)pyrrolidin-1-yl)-2,2-difluoro-2-(1-hydroxy-3,3,5,5-tetramethylcyclohexyl)ethanone], the IC50 is 500 to 1000 nM.

As for `COc1ccc(OCc2cc([C@@H]3CCCN3C(=O)C(F)(F)C3(O)CC(C)(C)CC(C)(C)C3)no2)cn1` [Compound 41, (S)-2,2-Difluoro-2-(1-hydroxy-3,3,5,5-tetramethylcyclohexyl)-1-(2-(5-(((6-methoxypyridin-3-yl)oxy)methyl)isoxazol-3-yl)pyrrolidin-1-yl)ethanone], the half-inhibitory concentration (IC50) came to 150 nM.

With `CC1(C)CC(C)(C)CC(O)(C(F)(F)C(=O)N2CCC[C@H]2c2cc(CN)on2)C1` [Compound 42, (S)-1-(2-(5-(Aminomethyl)isoxazol-3-yl)pyrrolidin-1-yl)-2,2-difluoro-2-(1-hydroxy-3,3,5,5-tetramethylcyclohexyl)ethanone], the half-maximal inhibitory concentration (IC50) is 447 nM.

For the compound `COc1ccc(OCc2cc([C@@H]3CCCN3S(=O)(=O)CC3CCCCC3)no2)cc1OC` [Compound 43, (S)-3-(1-((Cyclohexylmethyl)sulfonyl)pyrrolidin-2-yl)-5-((3,4-dimethoxyphenoxy)methyl)isoxazole], the IC50 turned out to be 149 nM.

Consider `CC1(C)CC(C)(C)CC(O)(C(F)(F)C(=O)N2CCC[C@H]2c2cc(CNC(=O)c3ccccc3)on2)C1` [Compound 44, (S)—N-((3-(1-(2,2-Difluoro-2-(1-hydroxy-3,3,5,5-tetramethylcyclohexyl)acetyl)pyrrolidin-2-yl)isoxazol-5-yl)methyl)benzamide], for which the IC50 turned out to be 166 nM.

As to `CC1(C)CC(C)(C)CC(O)(C(F)(F)C(=O)N2CCC[C@H]2c2cc(CNS(=O)(=O)c3ccccc3)on2)C1` [Compound 45, (S)—N-((3-(1-(2,2-Difluoro-2-(1-hydroxy-3,3,5,5-tetramethylcyclohexyl)acetyl)pyrrolidin-2-yl)isoxazol-5-yl)methyl)benzenesulfonamide], the IC50 came out at 101 nM.

For the compound `CN(C)Cc1cc([C@@H]2CCCN2C(=O)C(F)(F)C2(O)CC(C)(C)CC(C)(C)C2)no1` [Compound 46, (S)-1-(2-(5-((Dimethylamino)methyl)isoxazol-3-yl)pyrrolidin-1-yl)-2,2-difluoro-2-(1-hydroxy-3,3,5,5-tetramethylcyclohexyl)ethanone], the 50% inhibitory concentration (IC50) came out at 310 nM.

In the case of `CC1(C)CC(C)(C)CC(O)(C(F)(F)C(=O)N2CCC[C@H]2c2cc(CN3CCOCC3)on2)C1` [Compound 47], the IC50 stood at 254 nM.

On to `CC1(C)CC(C)(C)CC(O)(C(F)(F)C(=O)N2CCC[C@H]2c2cc(CNC(=O)Cc3ccccc3)on2)C1` [Compound 48], for which the IC50 was found to be 94 nM.

On to `CC1(C)CC(C)(C)CC(O)(C(F)(F)C(=O)N2CCC[C@H]2c2cc(C(C)(C)O)on2)C1` [Compound 49], for which the 50% inhibitory concentration (IC50) lay within 500 to 1000 nM.

`COc1ccc(C(=O)NCc2cc([C@@H]3CCCN3C(=O)C(F)(F)C3(O)CC(C)(C)CC(C)(C)C3)no2)cc1OC` [Compound 50]: the 50% inhibitory concentration (IC50) stood at 117 nM.

For the compound `COc1ccc(CC(=O)NCc2cc([C@@H]3CCCN3C(=O)C(F)(F)C3(O)CC(C)(C)CC(C)(C)C3)no2)cc1OC` [Compound 51], the IC50 worked out at 74 nM.

Take `CC1(C)CC(C)(C)CC(O)(C(F)(F)C(=O)N2CCC[C@H]2c2cc(COc3ccnnc3)on2)C1` [Compound 53, (S)-2,2-Difluoro-2-(1-hydroxy-3,3,5,5-tetramethylcyclohexyl)-1-(2-(5-((pyridazin-4-yloxy)methyl)isoxazol-3-yl)pyrrolidin-1-yl)ethanone]: the IC50 was 86 nM.

Regarding `CC1(C)CC(C)(C)CC(O)(C(F)(F)C(=O)N2CCC[C@H]2c2cc(COc3ccccn3)on2)C1` [Compound 54, (S)-2,2-Difluoro-2-(1-hydroxy-3,3,5,5-tetramethylcyclohexyl)-1-(2-(5-((pyridin-2-yloxy)methyl)isoxazol-3-yl)pyrrolidin-1-yl)ethanone], the IC50 turned out to be 290 nM.
